Assay results from patent US12472196B2, “Use of DNMT inhibitor” (priority 2019, dated 2025).
Where two headings read alike, the source gives them in different places.

Assays:
cytidine deaminase = cytidine deaminase (Homo sapiens, UniProt P32320); test: Stability against cytidine deaminase (HPLC)
Experimental: About 1 mg of a silyl etherified derivative of 5-aza-2′-deoxycytidine in carbohydrate moiety (see formula (I)) was dissolved in 1 mL of acetonitrile. 10 μL of the solution was added to 1 mL of PBS. 10 μl of a PBS solution of cytidine deaminase was added to the obtained solution and stirred at 37° C. for about 1 hour. 1 mL of acetonitrile was added to the reaction solution and centrifuged. The supernatant was analyzed with HPLC.
Cytidine deaminase: CDA (1-146aa), Human, His-tagged, Recombinant cytidine deaminase (ATGen) • HPLC conditions: • Column: CAPCELL PAK ADME (4.6 mm×150 mm, particle size: 3 μm) • Elution: eluate A=Purified water containing 10 mM ammonium formate • Eluate B=Acetonitrile • Gradient mode: A:B=99:1→5:95/30 minutes • Flow rate: 1.0 mL/min • Oven temperature: 40° C. • Detection: UV240 nm

[1] = Non-enzymatic hydrolysis in PBS solution at 37° C. (HPLC); type: physicochemical
Experimental: A silyl etherified derivative of 5-aza-2′-deoxycytidine in carbohydrate moiety (see formula (I)), for example, 5′-O-(triethylsilyl)-5-aza-2′-deoxycytidine (Compound F) (about 1 mg) was dissolved in 1 mL of acetonitrile. 5 μL of the solution was added to 100 μL of a PBS solution (10 mM), and stirred at 37° C. The reactant was analyzed over the time with HPLC.
HPLC conditions were same as those in test example 1.

BV173 = test: cells
Experimental: (§1) The CML cell line (BV173, MYL, Ba/F3 BCR-ABL^WT) and the TKI-resistant CML cell line (MYL-R, Ba/F3 BCR-ABL^T315I) in the Table below were seeded in 96-well plates at 3,000-7,000 cells/100 μL/well in a culture solution (10% FBS and RPMI-1640) and cultured under 5% CO2 gas flow at 37° C. for about 3 hours. Then, 100 μL of each compound diluted with the culture solution to 50-0.05 μM MYL, Ba/F3 BCR-ABL^WT, MYL-R, Ba/F3 BCR-ABL^T315I and 500 nM-0.1 nM BV173 was added to the above 96-well plates and cultured for 24 hours, followed by centrifugation (4° C., 1500 rpm, 5 minutes). The supernatant of the culture solution was discarded. 100 μL each of the compounds diluted with the culture solution was added again and cultured further for 24 hours (48 hours totally). The same procedure was repeated. After further culturing for 24 hours (72 hours totally) and reaction using CCK-8 reagent (DOJINDO, CK04) according to its attached instruction, the absorption at 450 nm and 620 nm (blank) of each well was determined with a plate reader (Varioskan Flash, Thermo-Fisher Scientific Co. Ltd.). The values of the wells without sample treatment were taken as 100%, and those of the wells treated with the samples were expressed as relative values. The values of IC50 (μm) were calculated (see Table 3-1). In addition, IC50 ratio of MYL-R cell line to MYL cell line and that of Ba/F3 BCR-ABL^T315I cell line to Ba/F3 BCR-ABL^WT cell line were calculated (see Table 3-2).

Ba/F3 BCR-ABL^WT = test: cells; settings: Mus musculus, BaF3, 72 h, read-out: IC50 Ba/F3 BCR-ABL^WT
Experimental: as §1

MYL = test: cells; settings: 72 h, read-out: IC50 MYL
Experimental: as §1

Ba/F3 BCR-ABL^T315I = test: cells
Experimental: as §1
(§2) MYL-R cell line is an MYL cell line in which Lyn is overexpressed, and Ba/F3 BCR-ABL^T315I cell line is the one in which ABLT315I mutation is introduced into Ba/F3 BCR-ABL^WT cell line. They both have acquired resistance to TKI.

MYL-R = test: cells
Experimental: as §1, §2

[2] = system: CpG island of LINE-1 in BV173 cell line; test: DNA demethylation effect: CpG methylation ratio of LINE-1 by pyrosequencing; type: cell-based; settings: BV173, 72 hours
Experimental: The methylation ratio of cytosine moiety of CpG island of LINE-1 (long interspersed nucleotide factor −1) was determined by using a method of pyrosequencing.
Solutions of silyl etherified derivatives of 5-aza-2′-deoxycytidine in carbohydrate moiety (for example, Compound F: 5′-O-(triethylsilyl)-5-aza-2′-deoxycytidine) at concentrations of 0.1 nM, 1.0 nM, 5.0 nM, 10.0 nM, and 50.0 nM were added, respectively to a solution containing BV173 cell line (about 50,000 cells/mL), and cultured in a RPMI-1640 medium (containing 10% FBS and Penn-strep) for 72 hours. Then, DNA was extracted from the cells and treated with hydrogensulfite. CpG methylation ratio of LINE-1 was determined (see Table 4).

Sequence of cytidine deaminase (P32320 whole entry): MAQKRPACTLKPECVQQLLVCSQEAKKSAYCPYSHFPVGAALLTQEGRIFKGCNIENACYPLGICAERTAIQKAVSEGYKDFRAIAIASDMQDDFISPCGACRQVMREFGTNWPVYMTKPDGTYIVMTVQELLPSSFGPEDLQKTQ

Nc1ncn([C@H]2C[C@H](O)[C@@H](CO)O2)c(=O)n1 [5-Aza-2′-deoxycytidine]
Change in HPLC pattern (cytidine deaminase): The peak for starting material disappeared
stability to cytidine deaminase (in words) (cytidine deaminase): disappeared completely
time within which decomposed in the presence of cytidine deaminase (cytidine deaminase; under the condition used): ≤ 30 min

CC[Si](CC)(CC)OC[C@H]1O[C@@H](n2cnc(N)nc2=O)C[C@@H]1O [Compound F, 5′-O-(Triethylsilyl)-5-aza-2′-deoxycytidine]
Change in HPLC pattern (cytidine deaminase; PBS with recombinant human cytidine deaminase, 37° C., about 1 hour): Almost no change in the peak for
5-Aza-2′-deoxycytidine (%) After 4 hours ([1]; 10 mM PBS, 4 hours, desilyl form produced): 10%
5-Aza-2′-deoxycytidine (%) After 8 hours ([1]; 10 mM PBS, 8 hours, desilyl form produced): 12%
5-Aza-2′-deoxycytidine (%) After 24 hours ([1]; 10 mM PBS, 24 hours, desilyl form produced): 48%
non-enzymatic hydrolysis in PBS solution (in words) ([1]; PBS): the corresponding desilyl form (5-aza-2′-deoxycytizine: R^1 and R^2 are hydrogen atoms in formula (I)) was produced almost without other decomposition products
anti-CML activity (in words) (BV173; CML cell lines of Table 3-1 (BV173, MYL, Ba/F3 BCR-ABL^WT)): very high anti-CML activity
IC50 (BV173; Homo sapiens, BV-173, 72 h, read-out: IC50 BV173): 5 nM
IC50 (Ba/F3 BCR-ABL^WT): 580 nM
IC50 (MYL): 280 nM
IC50 (Ba/F3 BCR-ABL^T315I; Mus musculus, BaF3, 72 h, read-out: IC50 Ba/F3 BCR-ABL^T315I): 780 nM
IC50 ratio Ba/F3 BCR-ABL^T315I/BCR-ABL^WT (Ba/F3 BCR-ABL^T315I; ratio of IC50 in Ba/F3 BCR-ABL^T315I to Ba/F3 BCR-ABL^WT): 1.4
IC50 (MYL-R; 72 h, read-out: IC50 MYL-R): 790 nM
anti-CML activity against MYL-R strain compared with reference nucleosides (in words) (MYL-R; MYL-R): considerably higher than that in the case of 5-aza cytidine
anti-TKI-resistant CML activity (in words) (MYL-R; TKI-resistant CML cell lines of Table 3-1 (MYL-R, Ba/F3 BCR-ABL^T315I)): anti-TKI-resistant CML activity
IC50 ratio MYL-R/MYL (MYL-R; ratio of IC50 in MYL-R to MYL): 2.8
Methylation ratio ([2]; 0.1 nM): 89.3%
Methylation ratio ([2]; 1.0 nM): 89.7%
Methylation ratio ([2]; 5.0 nM): 88.0%
Methylation ratio ([2]; 10.0 nM): 82.3%
Methylation ratio ([2]; 50.0 nM): 60.0%
